Data on nine compounds can be found in ChEMBL document CHEMBL5042510, “Structure-Guided Discovery of Aminoquinazolines as Brain-Penetrant and Selective LRRK2 Inhibitors” (J Med Chem, 2022).

Data set [1] in a line: Total plasma clearance in Wistar Han rat at 0.1 mg/kg, iv by LC-MS/MS analysis. The data set is classed as ADME, organism-based.
A short description of data set [2]: Intrinsic clearance in rat hepatocytes at 0.3 uM incubated for 90 mins by LC/MS/MS analysis. Format: ADME, cell-based, Hepatocyte. Conditions: read-out: CLH.
A short description of data set [3]: Intrinsic clearance in human hepatocytes at 0.3 uM incubated for 90 mins by LC/MS/MS analysis. The data set is classed as ADME, cell-based, Hepatocyte. The following applies: read-out: CLH.
Data set [4] is described as follows: MRT in Wistar Han rat at 0.1 mg/kg, iv by LC-MS/MS analysis. Conditions: in vivo. The data set is classed as ADME, organism-based.
Data set [5] is described as follows: Intrinsic clearance in Wistar Han rat at 0.1 mg/kg, iv by LC-MS/MS analysis. Conditions: in vivo. The data set is classed as ADME, organism-based.
Data set [6] deals with Leucine-rich repeat serine/threonine-protein kinase 2 (Homo sapiens), Q5S007 [G2019S]. Description: Inhibition of LRRK2 […] mutant expressed in human SH-SY5Y cells assessed as unbound concentration required for inhibition of phosphorylation of LRRK2 at Ser935 residue incubated for 90 mins by MSD assay. The data set is classed as cell-based.
Data set [7] addresses Voltage-gated inwardly rectifying potassium channel KCNH2 (Homo sapiens, UniProt Q12809). Briefly: Inhibition of human ERG by voltage clamp assay. Format: toxicity.
Data set [8] has as its target Leucine-rich repeat serine/threonine-protein kinase 2 (Homo sapiens, UniProt Q5S007, G2019S). Description: Inhibition of recombinant N-terminal GST-fused LRRK2 […] mutant (970 to 2527 residues) (unknown origin) preincubated with enzyme for 15 mins followed by fluorescein-labeled LRRKtide peptide substrate and ATP addition for 90 mins by TR-FRET assay.
Data set [9] can be described thus: Dissociation constant, pKa of the compound. Format: physicochemical.
For data set [10], the target named is Leucine-rich repeat serine/threonine-protein kinase 2 (Homo sapiens) (UniProt Q5S007). Briefly: Ex vivo inhibition of LRRK2 in human PBMC assessed as unbound concentration required for reduction in LRRK2 phosphorylation at Ser935 residue incubated for 90 mins by MSD assay. The data set is classed as cell-based.
Data set [11] has as its system rat Mdr1a (P-gp). Description: Efflux ratio of apparent permeability across basolateral to apical side over apical to basolateral side in rat Mdr1a-transfected pig LLC-PK1 cells at 0.1 to 1 uM measured after 3 hrs by LC/MS/MS analysis. Format: ADME, cell-based, Sus scrofa. The following applies: dose 0.1-1 µM.
The subject of data set [12] is rat Mdr1a (P-gp). Description: Apparent permeability from apical to basolateral side in rat Mdr1a-transfected pig LLC-PK1 cells at 0.1 to 1 uM measured after 3 hrs by LC/MS/MS analysis. Format: ADME, cell-based, Sus scrofa. Conditions: dose 0.1-1 µM.
The nature of data set [13]: Unbound brain-to-plasma concentration ratio in non-human primates administered orally and measured after 120 mins by LC/MS/MS analysis. The data set is classed as ADME. Conditions: po, read-out: K(p,uu,brain).
In another data set the test system is human MDR1 (P-gp). Briefly: Efflux ratio of apparent permeability across basolateral to apical side over apical to basolateral side in human MDR1-transfected dog MDCKII-MDR1 cells at 0.1 to 1 uM measured after 3 hrs by LC/MS/MS analysis. Format: ADME, cell-based, Canis lupus familiaris. Conditions: MDCK-MDR1, dose 0.1-1 µM.
Data set [14] in a line: Unbound brain-to-plasma concentration ratio in rat at 2.5 uM incubated for 4 hrs by equilibrium dialysis method. The data set is classed as ADME, cell-free. The following applies: brain and plasma (unbound), read-out: K(p,uu,brain).
Data set [15] can be described thus: Lipophilicity, logD of the compound by HPLC analysis. The data set is classed as physicochemical.

Each structure is given as a SMILES string. Where only a bound is given, the exact number is not on record here.

Voltage-gated inwardly rectifying potassium channel KCNH2, sequence (Q12809 whole entry, the tested form may be a part): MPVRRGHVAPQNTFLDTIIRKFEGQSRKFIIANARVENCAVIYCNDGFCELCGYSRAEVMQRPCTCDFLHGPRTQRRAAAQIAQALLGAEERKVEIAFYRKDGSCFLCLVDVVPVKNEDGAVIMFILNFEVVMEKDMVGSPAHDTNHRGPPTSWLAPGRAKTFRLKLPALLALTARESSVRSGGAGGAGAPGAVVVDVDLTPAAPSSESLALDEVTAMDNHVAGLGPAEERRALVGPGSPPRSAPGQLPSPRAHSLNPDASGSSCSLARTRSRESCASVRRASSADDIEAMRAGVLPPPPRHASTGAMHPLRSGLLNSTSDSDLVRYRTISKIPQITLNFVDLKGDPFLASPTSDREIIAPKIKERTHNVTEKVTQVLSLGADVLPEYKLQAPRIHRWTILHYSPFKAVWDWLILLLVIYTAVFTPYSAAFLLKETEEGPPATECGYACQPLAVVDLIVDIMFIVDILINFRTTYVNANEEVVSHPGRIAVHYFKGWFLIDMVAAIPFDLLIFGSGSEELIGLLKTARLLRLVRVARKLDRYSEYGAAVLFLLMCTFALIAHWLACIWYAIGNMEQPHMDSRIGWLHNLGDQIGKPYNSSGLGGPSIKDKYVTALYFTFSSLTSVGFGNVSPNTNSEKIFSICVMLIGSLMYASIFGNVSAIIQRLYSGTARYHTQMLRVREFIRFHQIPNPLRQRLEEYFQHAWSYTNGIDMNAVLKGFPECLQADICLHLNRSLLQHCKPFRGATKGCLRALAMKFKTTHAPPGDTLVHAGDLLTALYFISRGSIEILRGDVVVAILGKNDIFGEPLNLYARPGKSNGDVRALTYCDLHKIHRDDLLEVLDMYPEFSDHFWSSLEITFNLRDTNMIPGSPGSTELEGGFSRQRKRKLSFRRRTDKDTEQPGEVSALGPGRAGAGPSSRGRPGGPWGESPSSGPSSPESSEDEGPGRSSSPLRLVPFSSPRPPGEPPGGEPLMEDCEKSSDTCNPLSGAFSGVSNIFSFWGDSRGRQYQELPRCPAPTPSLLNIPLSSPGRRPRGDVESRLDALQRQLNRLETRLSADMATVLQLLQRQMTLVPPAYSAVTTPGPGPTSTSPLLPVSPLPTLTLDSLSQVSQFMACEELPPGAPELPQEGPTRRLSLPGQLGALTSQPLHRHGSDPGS
Leucine-rich repeat serine/threonine-protein kinase 2, sequence (Q5S007 whole entry G2019S, the tested form may be a part): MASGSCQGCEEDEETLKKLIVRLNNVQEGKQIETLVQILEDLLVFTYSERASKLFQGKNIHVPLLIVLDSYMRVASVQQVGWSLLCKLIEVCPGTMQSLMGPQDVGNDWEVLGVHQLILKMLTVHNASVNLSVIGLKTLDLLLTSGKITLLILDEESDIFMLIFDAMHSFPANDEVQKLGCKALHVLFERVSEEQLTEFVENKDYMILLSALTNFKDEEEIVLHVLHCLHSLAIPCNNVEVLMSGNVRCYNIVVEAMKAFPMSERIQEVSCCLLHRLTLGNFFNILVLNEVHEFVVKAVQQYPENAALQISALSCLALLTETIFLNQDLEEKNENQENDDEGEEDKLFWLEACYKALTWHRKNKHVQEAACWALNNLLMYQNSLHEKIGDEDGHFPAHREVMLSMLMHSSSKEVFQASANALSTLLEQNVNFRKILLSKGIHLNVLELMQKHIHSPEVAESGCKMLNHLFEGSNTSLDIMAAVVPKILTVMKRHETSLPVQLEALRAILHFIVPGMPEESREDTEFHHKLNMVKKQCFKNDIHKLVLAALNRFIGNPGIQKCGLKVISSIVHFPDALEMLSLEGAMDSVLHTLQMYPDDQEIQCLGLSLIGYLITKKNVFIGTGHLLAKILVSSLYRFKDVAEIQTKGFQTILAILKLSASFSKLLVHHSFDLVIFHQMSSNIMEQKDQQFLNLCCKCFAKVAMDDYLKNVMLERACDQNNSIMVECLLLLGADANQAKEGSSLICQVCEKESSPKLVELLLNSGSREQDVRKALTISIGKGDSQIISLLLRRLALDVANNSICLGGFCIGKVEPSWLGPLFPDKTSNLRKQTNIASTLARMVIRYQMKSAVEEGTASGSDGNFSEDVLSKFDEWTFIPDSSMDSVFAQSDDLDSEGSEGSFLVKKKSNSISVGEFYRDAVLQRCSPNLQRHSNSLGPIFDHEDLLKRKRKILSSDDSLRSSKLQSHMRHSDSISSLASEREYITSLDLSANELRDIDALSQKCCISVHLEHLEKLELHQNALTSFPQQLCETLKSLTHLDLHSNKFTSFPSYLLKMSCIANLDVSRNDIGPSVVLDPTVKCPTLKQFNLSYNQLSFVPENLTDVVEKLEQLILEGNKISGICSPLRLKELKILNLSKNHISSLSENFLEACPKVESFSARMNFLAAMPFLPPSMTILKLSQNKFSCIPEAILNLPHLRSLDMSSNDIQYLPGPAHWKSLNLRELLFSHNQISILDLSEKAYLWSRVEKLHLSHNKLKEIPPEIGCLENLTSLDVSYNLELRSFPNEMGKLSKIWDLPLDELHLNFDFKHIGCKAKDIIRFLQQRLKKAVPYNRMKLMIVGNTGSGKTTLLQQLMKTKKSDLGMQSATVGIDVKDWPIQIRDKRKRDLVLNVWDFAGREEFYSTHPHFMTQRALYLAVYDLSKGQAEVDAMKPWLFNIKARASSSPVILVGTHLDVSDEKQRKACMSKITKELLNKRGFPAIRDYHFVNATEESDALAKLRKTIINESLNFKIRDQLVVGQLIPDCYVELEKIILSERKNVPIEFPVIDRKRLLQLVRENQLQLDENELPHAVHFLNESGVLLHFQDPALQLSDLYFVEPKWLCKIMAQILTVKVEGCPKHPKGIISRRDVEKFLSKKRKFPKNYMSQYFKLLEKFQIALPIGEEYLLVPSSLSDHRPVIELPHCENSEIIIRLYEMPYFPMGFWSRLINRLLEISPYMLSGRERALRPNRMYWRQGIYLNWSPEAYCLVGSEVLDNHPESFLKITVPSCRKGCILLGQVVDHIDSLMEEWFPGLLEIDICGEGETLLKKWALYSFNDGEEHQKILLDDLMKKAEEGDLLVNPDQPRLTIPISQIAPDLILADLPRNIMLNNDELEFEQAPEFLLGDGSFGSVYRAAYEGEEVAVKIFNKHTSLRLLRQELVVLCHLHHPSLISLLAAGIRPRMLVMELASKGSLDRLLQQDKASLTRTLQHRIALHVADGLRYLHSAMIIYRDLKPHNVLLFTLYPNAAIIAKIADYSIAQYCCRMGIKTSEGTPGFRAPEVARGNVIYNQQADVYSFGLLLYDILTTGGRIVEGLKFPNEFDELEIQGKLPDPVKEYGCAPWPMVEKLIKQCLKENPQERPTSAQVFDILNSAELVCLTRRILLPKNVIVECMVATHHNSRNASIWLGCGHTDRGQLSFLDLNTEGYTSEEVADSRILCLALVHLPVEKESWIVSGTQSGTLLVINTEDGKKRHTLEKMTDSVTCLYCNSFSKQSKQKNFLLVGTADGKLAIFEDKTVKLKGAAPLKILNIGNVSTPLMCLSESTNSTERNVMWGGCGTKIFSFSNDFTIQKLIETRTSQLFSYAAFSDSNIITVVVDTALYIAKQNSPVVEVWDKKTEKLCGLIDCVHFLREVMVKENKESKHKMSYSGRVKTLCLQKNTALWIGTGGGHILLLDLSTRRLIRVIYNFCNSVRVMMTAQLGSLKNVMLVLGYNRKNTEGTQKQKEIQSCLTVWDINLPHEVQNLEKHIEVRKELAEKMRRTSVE
Leucine-rich repeat serine/threonine-protein kinase 2 (Homo sapiens), Q5S007 [G2019S], sequence (Q5S007 whole entry G2019S): as the sequence (Q5S007 whole entry G2019S, the tested form may be a part) above
Leucine-rich repeat serine/threonine-protein kinase 2 (Homo sapiens), sequence (Q5S007 whole entry): as the sequence (Q5S007 whole entry G2019S, the tested form may be a part) above, with S2019G counted along it

For `FC1CN(C2CCOC2)CCC1c1cc2nc(Nc3cnn(C4CC4(F)F)c3Cl)ncc2cc1Cl` (stereo unspecified), the clearance (in general, the rate of elimination divided by the concentration) in [1] is 22 mL/min/kg. Moreover, the CLint scaled at 0.3 µM in [2] came to 2640 mL/min/kg; in [3], 471 mL/min/kg. Besides, the mean residence time (MRT) (commonly a mean duration of stay, worked out from the concentration-time curve) in data set [4] was determined as 3.3 h. Also, the CL in [5] amounted to 2494 mL/min/kg. Further, the fIC50 in data set [6] was determined as 2.5 nM. The figures for the IC50 in [7] and in data set [8] were 35 µM and less than 0.0006 µM, respectively.

Consider `F[C@@H]1CNCC[C@H]1c1cc2nc(Nc3cnn([C@@H]4CC4(F)F)c3Cl)ncc2cc1Cl`, for which the clearance in data set [1] amounted to 22 mL/min/kg. Further, the pKa (usually the negative logarithm of the acid dissociation constant) in [9] came to 7.79. In data set [4], this compound had an MRT of 1.8 h. Besides, the fIC50 in data set [10] came to 9 nM. This compound returned a CL in [5] of 1890 mL/min/kg. Moreover, the IC50 – broadly, the concentration that gives 50% inhibition – in [7] was 0.57 µM.

For `FC1CN(C2COCC2F)CCC1c1cc2nc(Nc3cnn(C4CC4(F)F)c3Cl)ncc2cc1Cl` (stereo unspecified), in the data set on rat Mdr1a (P-gp) [11], the efflux ratio (as a rule, a quotient of directional permeabilities that is used to spot active efflux) at 3 h, up to 1 µM is 1.6. In addition, the clearance in [1] amounted to 12 mL/min/kg. Moreover, the CLint scaled at 0.3 µM was determined as 956 mL/min/kg in data set [2] and 720 mL/min/kg in data set [3]. This compound showed an MRT in data set [4] of 4.8 h. Further, the Papp A→B (commonly the apparent permeability from the apical to the basolateral side of a cell layer) at 3 h, up to 1 µM in the data set with rat Mdr1a (P-gp) [12] is 23 ×10⁻⁶ cm/s. The compound also displayed a CL in data set [5] of 2771 mL/min/kg. For the same compound, the fIC50 in data set [6] turned out to be 1.9 nM. For the same compound, the IC50 in data set [7] is 8.6 µM; in data set [8] it was less than 0.0006 µM.

Turning to `FC1CN(C2COC2)CCC1c1cc2nc(Nc3cnn(C4CC4(F)F)c3Cl)ncc2cc1Cl` (stereo unspecified), the efflux ratio at 3 h, up to 1 µM with rat Mdr1a (P-gp) [11] is 1.2. In [1], this compound displayed a clearance of 20 mL/min/kg. Besides, the results for the CLint scaled at 0.3 µM in [2] and in [3] were 210 mL/min/kg and 186 mL/min/kg, respectively. Also, the MRT in data set [4] was determined as 2.7 h. Besides, the Papp A→B at 3 h, up to 1 µM with rat Mdr1a (P-gp) [12] came out at 31 ×10⁻⁶ cm/s. In data set [5], the CL came to 1545 mL/min/kg. Besides, in data set [6], the fIC50 worked out at 6.1 nM. Moreover, the values for the half-maximal inhibitory concentration (IC50) in data set [7] and in data set [8] were 18.3 µM and less than 0.0006 µM, respectively.

In the case of `CCNc1nc(Nc2cc(F)c(C(=O)N3CCOCC3)cc2OC)ncc1C(F)(F)F`, the Kp uu at 2 h in data set [13] is 0.6. For the same compound, the efflux ratio at 3 h, up to 1 µM in the data set with human MDR1 (P-gp) turned out to be 0.9. Also, the Kp uu at 4 h, 2.5 µM in [14] came out at 0.5.

As for `Cc1c(Nc2ncc3ccc(C4(C#N)CC4)cc3n2)cnn1C1CCOCC1`, the efflux ratio at 3 h, up to 1 µM in the data set with rat Mdr1a (P-gp) [11] is 6.4. In the data set on rat Mdr1a (P-gp) [12], the Papp A→B at 3 h, up to 1 µM worked out at 34 ×10⁻⁶ cm/s. For the same compound, the fIC50 in [6] was 19 nM. For the same compound, in data set [8], the IC50 is 0.0007 µM.

As for `CNc1nc(Nc2cn(C(C)(C)C#N)nc2C)ncc1C(F)(F)F` [DNL-201], the Kp uu at 2 h in data set [13] stood at 0.46. In the data set on human MDR1 (P-gp), the efflux ratio at 3 h, up to 1 µM is 0.8. Further, the Kp uu at 4 h, 2.5 µM in [14] turned out to be 0.6.

For the compound `Cc1c(Nc2ncc3ccc(-c4ccn[nH]4)cc3n2)cnn1C1CCOCC1`, the fIC50 in data set [6] was 114 nM. Besides, the IC50 in [8] was found to be 0.0017 µM.

In the case of `Cc1c(Nc2ncc3ccc(N4C(=O)OC[C@@H]4C)cc3n2)cnn1C1CCOCC1`, the efflux ratio at 3 h, up to 1 µM in the data set on rat Mdr1a (P-gp) [11] came to 35. The compound also gave a clearance in data set [1] of 9 mL/min/kg. Moreover, the logD (commonly lipophilicity at a set pH, counting ionised and neutral species) in data set [15] came out at 1.4. The figures for the CLint scaled at 0.3 µM in [2] and in [3] were 17 mL/min/kg and less than 6 mL/min/kg, respectively. The compound also yielded an MRT in data set [4] of 1.6 h. In the data set on rat Mdr1a (P-gp) [12], the Papp A→B at 3 h, up to 1 µM was determined as 27 ×10⁻⁶ cm/s. This compound also returned a CL in data set [5] of 26 mL/min/kg. For the same compound, the fIC50 in data set [6] was determined as 3.2 nM. In addition, the IC50 in data set [8] is less than 0.0006 µM.
